{"source": "paper PMC2953525", "about": "“Subtle Alterations in PCNA-Partner Interactions Severely Impair DNA Replication and Repair” (PLoS Biology, 2010)", "key": {"Msh6 PIP peptide": {"target": "Msh6 PIP peptide", "test": "SPR analysis of PCNA binding to PIP peptide", "set-up": "species or system yeast", "conditions": "PCNA immobilized, peptide 5-5,000 nM, ProteOn XPR36; read-out: Binding affinity for Msh6 PIP peptide (SPR)", "source_text": "(§1) To quantify differences in binding affinities of the PCNA mutants relative to the WT, we characterized four PCNA mutants with increased affinity for PIP peptides derived from Rad30, Pol32, Msh6, and Ung1 partners using SPR. These mutants were overexpressed in E. coli, purified by affinity chromatography, and immobilized on an SPR sensor chip for binding characterization. SPR binding analysis enabled direct and sensitive measurement of interaction affinities relative to the Y2H system and indicated an up to 8-fold increase in binding affinity for the different PIP peptides, relative to WT PCNA (Table 1). Such analysis allowed the detection of a significant decrease in the Rad30 PIP peptide dissociation rate in the Pol30-Rad30E9p mutant relative to the WT, indicating a ∼9-fold increase in the lifetime of the PCNA-Rad30 complex (see Table 1). Collectively the ELISA, Y2H, and SPR assays validated and quantified the increase in mutant PCNA binding affinities, relative to WT PCNA.\n(§2) Protein interaction assays were carried out using the ProteOn XPR36 (Bio-Rad) instrument. WT or PCNA mutants (0.4 to 5.2 fmol) were immobilized on the surface of a GLM sensor chip by a carbodiimide-activated succinimide-coupling method, as specified by the manufacturer. All SPR experiments were performed by flowing 150 µl of the target peptide at a flow rate of 30 µl/min onto the PCNA-bound chip. Different concentrations (5–5,000 nM) of PIP peptides (Table 1) were injected over the PCNA chip, and binding parameters were determined using ProteOn XPR36 software (Bio-Rad). The ligand (PCNA) and analyte (peptide) buffers were PBST and 150 mM NaCl, 1 mM EDTA, 0.01% Tween-80, 30 mM Hepes, pH 7.5, respectively."}, "Rad30 PIP peptide": {"target": "Rad30 PIP peptide", "test": "SPR analysis of PCNA binding to PIP peptide", "set-up": "species or system yeast", "source_text": "as §1, §2"}, "Pol32 PIP peptide": {"target": "Pol32 PIP peptide", "test": "SPR analysis of PCNA binding to PIP peptide", "set-up": "species or system yeast", "conditions": "PCNA immobilized, peptide 5-5,000 nM, ProteOn XPR36; read-out: Binding affinity for Pol32 PIP peptide (SPR)", "source_text": "as §1, §2"}, "CAN1 gene": {"test_system": "CAN1 gene", "test": "Spontaneous mutation rate, CAN1 reporter assay, fluctuation analysis", "type": "cell-based, yeast", "conditions": "Table 2", "source_text": "It was previously shown that PCNA contains another site of regulation (i.e. K164) that is modulated by ubiquitination or SUMOylation (Figure 1B) and that is crucial for the recruitment of TLS polymerases,[37]. To test whether the K164 regulatory site is active in the PCNA mutant strains, we examined the spontaneous mutation rate in these strains (Table 1). Increase in spontaneous mutation rate can indicate the recruitment of TLS polymerases to PCNA through K164 ubiquitination,[37]. Alternatively, these mutants can indirectly affect the spontaneous mutation rate by reducing DNA replication processivity and causing replication fork stalling, thereby leading to TLS recruitment. These mutants can also indirectly alter Pol-δ or Pol-ε proofreading leading to TLS recruitment. We measured the spontaneous mutation rate using the CAN1 reporter assay by monitoring the ability of the PCNA mutant strains to grow in the presence of canavanine, a toxic analogue of arginine. […] To examine whether Polζ, the major TLS polymerase,[37], is recruited in vivo to PCNA mutants showing increased affinity for Rad27 and Pol32 (pol30-Rad27E6 and pol30-Pol32E5, Table 1) upon K164 ubiquitination, we measured the spontaneous mutation rates of these mutant strains on the background of either mutated rev3 encoding the catalytic subunit of Polζ or mutated rad18 encoding the K164 ubiquitin ligase or K164R mutation (Figure 7, Table 2).\nNovel haploids containing PCNA mutants were generated using the plasmid shuffling method. Briefly, a pol30::KanMX magic marker heterozygote diploid strain BY4743 (Open Biosystem) was transformed with plasmid pRS316-POL30. Following dissection of the diploid, a haploid containing the CAN+ gene and plasmid pRS316-POL30 as a sole source of PCNA was generated. This host strain was transformed with selected pRS315-pol30 mutants, plated on SC-Ura-Leu plates, followed by replica plating to SC-Leu+5FOA plates. Haploids, containing PCNA mutants as a sole source, were further verified by plating on either SC-Leu or SC-Ura plates. For testing selected PCNA mutants, a haploid containing rad27::HYG, rad30::HYG, pol32::HYG, msh6::HYG, or ung1::HYG were generated using plasmid pAG32 by conventional genetic approaches. Growth of the PCNA mutant strains in the presence of 120 mM HU (Toronto Research Chemicals) or 0.02% MMS (Sigma) was performed as described. To examine the effects of partner overexpression on pol30 mutant strains, these strains were transformed with various plasmids containing GST-tagged PCNA partner encoding genes under the control of a GAL1/10 inducible promoter, as previously described. Overnight cultures were plated in serial dilutions on SC-Ura containing either glucose or galactose with or without DNA-damaging agents, as described above.\nThe mutation rates for the different pol30 mutant strains described in this study were determined by fluctuation test analysis using the Lea and Coulson method,[48]. The different strains were plated as single colonies on SC-Leu plates and allowed to grow for 3 d at 30°C. At least 25 single colonies from each strain were excised from the plate and resuspended in 1 ml of sterile water to an O.D600 of 0.7. Appropriate dilutions of the cells were then plated on SC-Leu and SC-Leu-Arg+canavanine ([…]) to obtain the number of viable cells (Nt) and the number of canavanine-resistant cells (r), respectively. Using the Lea and Coulson method, the number of mutations (m) per colony was derived from the number of canavanine resistant-colonies (r) across parallel cultures, using the following equation: […]. The m values were then used to calculate the mutation rate, M, using the following equation: M = m/Nt, where Nt is the average number of viable cells per plating. The different M values were sorted to obtain the median. […]"}}, "data": [{"substance": "POL30: wild-type yeast PCNA (POL30), IDCL sequence DIDADFLKIEEL", "values": [{"measurement": "Kd", "setting": "Msh6 PIP peptide", "result": 3000, "unit": "nM"}, {"measurement": "Kd", "setting": "Rad30 PIP peptide; PCNA immobilized, peptide 5-5,000 nM, ProteOn XPR36, read-out: Binding affinity for Rad30 PIP peptide (SPR)", "result": 170, "unit": "nM"}, {"measurement": "off-rate (kd) of the Rad30 PIP peptide", "setting": "Rad30 PIP peptide; SPR", "result": 0.03, "unit": "s⁻¹"}, {"measurement": "Kd", "setting": "Pol32 PIP peptide", "result": 360, "unit": "nM"}, {"measurement": "Fold Increase Relative to WT (mutation rate, CAN1 locus)", "setting": "CAN1 gene", "result": 1, "unit": "fold"}, {"measurement": "Mutation Rate (CAN1 locus)", "setting": "CAN1 gene; median, brackets = 95% confidence interval, at least 25 independent determinations", "result": "1.5×10^−7 [1.5, 2.2]"}]}]}
